Series [1] can be described thus: Oral bioavailability in Sprague-Dawley rat at 2.5 mg/kg measured upto 24 hrs by LC-MS/MS analysis. The class given is ADME, organism-based. As to conditions: in vivo.
Series [2] in a line: Apparent […] clearance in Sprague-Dawley rat at 0.5 mg/kg, iv measured upto 24 hrs by LC-MS/MS analysis. It is filed as ADME, organism-based. As to conditions: in vivo.
Series [3] can be described thus: AUClast in Sprague-Dawley rat at 0.5 mg/kg, iv measured upto 24 hrs by LC-MS/MS analysis. Set-up: time < 24 hrs, dose 0.5 mg/kg, route iv. The class given is ADME, organism-based. As to conditions: in vivo.
Series [4] in a line: AUClast in Sprague-Dawley rat at 2.5 mg/kg, po measured upto 24 hrs by LC-MS/MS analysis. It is filed as ADME, organism-based. Set-up: dose 2.5 mg/kg, time < 24 hrs, route po. As to conditions: in vivo.
Series [5] is described as follows: Metabolic stability in rat liver microsomes assessed as clearance at 1 uM measured upto 90 mins by LC-MS/MS analysis. It is filed as ADME, Microsome. As to conditions: read-out: CLH. Background: Liver microsomes are vesicles of endoplasmic reticulum, rich in cytochrome P450 enzymes.
A short description of series [6]: Cmax in Sprague-Dawley rat at 0.5 mg/kg, iv measured upto 24 hrs by LC-MS/MS analysis. The class given is ADME, organism-based. Set-up: time < 24 hrs, dose 0.5 mg/kg, route iv. As to conditions: in vivo.
Series [7] is described as follows: Metabolic stability in human liver microsomes assessed as half life at 1 uM measured upto 90 mins by LC-MS/MS analysis. The class given is ADME, Microsome.
A short description of series [8]: Volume of distribution at steady state in Sprague-Dawley rat at 0.5 mg/kg, iv measured upto 24 hrs by LC-MS/MS analysis. The class given is ADME, organism-based. As to conditions: in vivo, read-out: Vdss.
The nature of series [9]: Metabolic stability in rat liver microsomes assessed as half life at 1 uM measured upto 90 mins by LC-MS/MS analysis. It is filed as ADME, Microsome.
The nature of series [10]: Metabolic stability in human liver microsomes assessed as clearance at 1 uM measured upto 90 mins by LC-MS/MS analysis. It is filed as ADME, Microsome. As to conditions: read-out: CLH.
Series [11] can be described thus: Half life in Sprague-Dawley rat at 2.5 mg/kg, po measured upto 24 hrs by LC-MS/MS analysis. The class given is ADME, organism-based. To be noted: in vivo.
Series [12] can be described thus: Half life in Sprague-Dawley rat at 0.5 mg/kg, iv measured upto 24 hrs by LC-MS/MS analysis. As to conditions: in vivo. It is filed as ADME, organism-based.
Series [13] is described as follows: Cmax in Sprague-Dawley rat at 2.5 mg/kg, po measured upto 24 hrs by LC-MS/MS analysis. As to conditions: in vivo. Set-up: dose 2.5 mg/kg, time < 24 hrs, route po. The class given is ADME, organism-based.

2 molecules from ChEMBL document CHEMBL5344477, “Discovery of benzoheterocyclic-substituted amide derivatives as apoptosis signal-regulating kinase 1 (ASK1) inhibitors” (RSC Med Chem, 2024) can be followed below.

By bioavailability is commonly meant dose-corrected exposure relative to a reference, in per cent. Read a high bioavailability as much systemic uptake. One may read the CL/F as clearance divided by bioavailability, as obtained after extravascular dosing. One may read the AUC(0-t) as exposure summed from dosing to a finite time, without extrapolation to infinity. As usually defined, the Cmax is the maximum level reached in the sampled fluid or tissue. The half-life is the time in which the quantity being followed falls by half.

In series [1], `O=C1CCc2cc(F)c(C(=O)Nc3cccc(-c4nncn4C4CC4)n3)cc2N1` registered a bioavailability of 57.4%. For the same molecule, the apparent clearance CL/F in series [2] is 17.7 mL/min/kg. The results for the area under the curve AUC(0-t) at 24 h in [3] and in series [4] were 469 ng·h/mL and 1330 ng·h/mL, respectively. Further, the CLint scaled at 1 µM in series [5] was 10.2 mL/min/kg; in [10], 3.8 mL/min/kg. In addition, the values for the Cmax in [6] and in [13] were 447 ng/mL and 345 ng/mL, respectively. Also, the half-life at 1 µM was 7.54 h in series [7] and 4.07 h in series [9]. Further, in [8], the Vd was found to be 0.96 L/kg. Moreover, the half-life in [11] was 2 h; in [12] it was 0.72 h.

As to `O=C1COc2cc(F)c(C(=O)Nc3cccc(-c4nncn4C4CC4)n3)cc2N1`, in [1], the bioavailability came out at 83.6%. In addition, the CL/F in series [2] is 14 mL/min/kg. Moreover, the results for the AUC(0-t) at 24 h in [3] and in series [4] were 592 ng·h/mL and 2390 ng·h/mL, respectively. Moreover, the CLint scaled at 1 µM in series [5] was determined as 10.2 mL/min/kg; in series [10], 4 mL/min/kg. Besides, the figures for the Cmax in [6] and in series [13] were 489 ng/mL and 832 ng/mL, respectively. Moreover, the half-life at 1 µM is 7.24 h in series [7] and 4.08 h in series [9]. Moreover, the Vd in series [8] came out at 1.07 L/kg. Also, the half-life was 2.07 h in series [11] and 0.97 h in series [12].
